{"source": "patent US8481028B2", "about": "“Compositions for preparing a coffee beverage comprising hydrolysed chlorogenic acid” (Nestec S.A., priority 2008, dated 2013)", "key": {"[1]": {"test_system": "Lactobacillus johnsonii (CNCM I-1225) fresh cells", "experiment": "Treatment of NESCAFE PROTECT with L. johnsonii fresh cells, HPLC of chlorogenic and phenolic acids", "method": "(§1) Cells of L. johnsonii (CNCM I-1225) were grown (7.0 E08 cfu/ml) and centrifuged (5000 g, 10 min), the pellets were resuspended in phosphate buffer (50 mM, pH 7.0) at a concentration of 0.61 g/ml. […] Samples were withdrawn at different reaction times, centrifuged (3000 g, 5 min) and filtered through 0.45 μm pore size syringe filters (Millipore SLHA 025 BS) and analysed by HPLC.\nA reaction control was run in parallel under the same reaction conditions but without bacteria.\n(§2) Coffee samples were diluted to 1% w/w and analyzed by RP-HPLC on a CC 250/4 Nucleosil 100-5-C18 column (Macherey-Nagel). The eluent system was Millipore water, 0.1% TFA and CH3CN at a flow rate of 1 mL/min. The method allowed the simultaneous determination of caffeoyl quinic acids (CQA), feruloyl quinic acids (FQA), di-caffeoyl quinic acids (diCQA), feruloyl quinic acid-lactones, caffeic acid (CA) and ferulic acid (FA) (absorbance at 325 nm) using external standard calibration curves. Results were expressed relative to the reference at time 0 (t0) or to the reference at the same time without bacteria."}, "[2]": {"test_system": "concentrated preparation of Lactobacillus johnsonii (CNCM I-1225)", "experiment": "Treatment of NESCAFE with concentrated preparation of L. johnsonii, HPLC", "method": "400 mg of NESCAFE SPECIAL FILTRE® (a dried extract of roasted coffee beans) were dissolved in 1 ml of boiling water and the solution was cooled to 37° C. at room temperature. To 250 μl of this coffee solution, different amounts of concentrated preparation of Lactobacillus johnsonii (50 μl, 100 μl, 350 μl, 750 μl) were added and the volume was adjusted to 1 ml with water. The mixtures were than incubated at 37° C. for 2 h and 4 h. After centrifugation (3000 g, 5 min) and filtration the samples were analysed by HPLC.\nas §2"}, "[3]": {"test_system": "Lactobacillus johnsonii (CNCM I-1225) extract (lysed cells)", "experiment": "Treatment of NESCAFE PROTECT with L. johnsonii extract (lysed cells), HPLC", "format": "biochemical", "method": "as §1, with “g/ml. The cells were then lysed using the glass-beads method. 600 μl of cells preparation were put in screw-cap tubes and 600 μl of glass-beads were added at 0° C. The tubes were then put into a Mini-Beadbeater for 1 min of intense shaking, cooled in ice, and put another 1 min in the Mini-Beadbeater.” for “g/ml.”, “min),” for “min) and”\nas §2"}, "[4]": {"test_system": "spray-dried preparation of Lactobacillus johnsonii (CNCM I-1225)", "experiment": "Treatment of NESCAFE PROTECT with spray-dried preparation of L. johnsonii, HPLC", "method": "(§3) To this solution, 10 mg of a spray-dried preparation of Lactobacillus johnsonii (CNCM I-1225) (3.3 E9 cfu/g) were added. The mixture was then incubated at 37° C. and samples were withdrawn at different reaction times. After centrifugation (3000 g, 5 min) and filtration (0.45 μm pore size syringe filters, Millipore SLHA 025 BS) the samples were analysed by HPLC.\nas §2"}, "[5]": {"test_system": "spray-dried preparation of Lactobacillus johnsonii (CNCM I-1225)", "experiment": "Treatment of green coffee extract with spray-dried preparation of L. johnsonii, HPLC", "method": "as §3, with “30 mg of a dried green coffee extract was dissolved in 1 ml phosphate buffer (50 mM, pH 7.0) or in 1 ml water. To” for “To”, “johnsonii” for “johnsonii (CNCM I-1225)”, “cfu/g) was” for “cfu/g) were”\nas §2"}, "[6]": {"test_system": "Lactobacillus johnsonii (CNCM I-1225)", "experiment": "Treatment of coffee extracts with bacteria cells (L. johnsonii), HPLC", "method": "as §2\n(§4) Tested strains were harvested (centrifugation at 5000 g for 10 min) after having well reached stationary phase, corresponding to 16 hours of incubation in culture medium at 37° C. in anaerobic atmosphere without agitation. For a first activation of the strains, frozen stock cultures were inoculated in fresh media and grown overnight. This pre-culture was used to inoculate the culture.\n(§5) After culture of bacteria and centrifugation, the pellets were resuspended in phosphate buffer (pH 7.0) at a concentration of 0.61 g/ml. To 200 μl of this cells preparation, 800 μl of a coffee solution (3%) was added and the mixture was incubated at 37° C. for 4 h, 16 h and 24 h."}, "[7]": {"test_system": "Bifidobacterium lactis BB12 (CNCM I-3446)", "experiment": "Treatment of coffee extracts with bacteria cells (B. lactis), HPLC", "method": "as §2, §4, §5"}, "Chlorogenate esterase": {"test_system": "Chlorogenate esterase", "experiment": "Incubation of coffee extracts with chlorogenate esterase, HPLC", "format": "biochemical, Aspergillus japonicus", "method": "as §2\nChlorogenate esterase (24 U/g), derived from Aspergillus japonicus (Kikkoman, Japan). Tannase from Aspergillus oryzae (Kikkoman, Japan) Preparation of Bacteria Cells\nA solution of chlorogenate esterase (25 mg) in 200 μl phosphate buffer (pH 7.0) was added to 800 μl of a coffee solution (3%). The mixture was then incubated at 37° C. for 4 h, 16 h and 24 h. After reaction time, the enzymatic activity was stopped by heat treatment (3 min, 90° C.) and the mixture was filtered before analysis."}}, "data": [{"substance": "caffeoyl quinic acids [CQA]", "values": [{"measurement": "Concentration in % relative to untreated reference at t = 0", "setting": "[1]; 6 h, cell preparation 100 uL", "result": 39, "unit": "%"}, {"measurement": "Concentration in % relative to untreated reference at t = 0", "setting": "[1]; 6 h, cell preparation 350 uL", "result": 14, "unit": "%"}, {"measurement": "Concentration in % relative to untreated reference at t = 0", "setting": "[1]; 6 h, cell preparation 750 uL", "result": 3, "unit": "%"}, {"measurement": "Concentration in % relative to untreated reference at t = 0", "setting": "[1]; 24 h, cell preparation 100 uL", "result": 15, "unit": "%"}, {"measurement": "Concentration in % relative to untreated reference at t = 0", "setting": "[1]; 24 h, cell preparation 350 uL", "result": 3, "unit": "%"}, {"measurement": "Concentration in % relative to untreated reference at t = 0", "setting": "[1]; 24 h, cell preparation 750 uL", "result": 0, "unit": "%"}, {"measurement": "% relative to untreated control at t = 0", "setting": "[2]; cell amount 50 μL/1 mL, 2 h", "result": 92, "unit": "%"}, {"measurement": "% relative to untreated control at t = 0", "setting": "[2]; cell amount 50 μL/1 mL, 4 h", "result": 76, "unit": "%"}, {"measurement": "% relative to untreated control at t = 0", "setting": "[2]; cell amount 100 μL/1 mL, 2 h", "result": 80, "unit": "%"}, {"measurement": "% relative to untreated control at t = 0", "setting": "[2]; cell amount 100 μL/1 mL, 4 h", "result": 60, "unit": "%"}, {"measurement": "% relative to untreated control at t = 0", "setting": "[2]; cell amount 350 μL/1 mL, 2 h", "result": 46, "unit": "%"}, {"measurement": "% relative to untreated control at t = 0", "setting": "[2]; cell amount 350 μL/1 mL, 4 h", "result": 33, "unit": "%"}, {"measurement": "% relative to untreated control at t = 0", "setting": "[2]; cell amount 750 μL/1 mL, 2 h", "result": 25, "unit": "%"}, {"measurement": "% relative to untreated control at t = 0", "setting": "[2]; cell amount 750 μL/1 mL, 4 h", "result": 17, "unit": "%"}, {"measurement": "Concentration in % relative to untreated reference at t = 0", "setting": "[3]; 2 h, cell preparation 100.0 uL", "result": 32, "unit": "%"}, {"measurement": "Concentration in % relative to untreated reference at t = 0", "setting": "[3]; 2 h, cell preparation 350.0 uL", "result": 10, "unit": "%"}, {"measurement": "Concentration in % relative to untreated reference at t = 0", "setting": "[3]; 6 h, cell preparation 100.0 uL", "result": 14, "unit": "%"}, {"measurement": "Concentration in % relative to untreated reference at t = 0", "setting": "[3]; 6 h, cell preparation 350.0 uL", "result": 6, "unit": "%"}, {"measurement": "% relative to untreated control at t = 0", "setting": "[4]; 2 h", "result": 73, "unit": "%"}, {"measurement": "% relative to untreated control at t = 0", "setting": "[4]; 6 h", "result": 67, "unit": "%"}, {"measurement": "% relative to untreated control at t = 0", "setting": "[4]; 24 h", "result": 32, "unit": "%"}, {"measurement": "% relative to untreated control at t = 0", "setting": "[5]; 4 h", "result": 77, "unit": "%"}, {"measurement": "% relative to untreated control at t = 0", "setting": "[5]; 6 h", "result": 69, "unit": "%"}, {"measurement": "% relative to untreated control at t = 0", "setting": "[5]; 16 h", "result": 58, "unit": "%"}, {"measurement": "% relative to untreated control at t = 0", "setting": "[5]; 24 h", "result": 50, "unit": "%"}, {"measurement": "% relative to untreated control at t = 0", "setting": "[6]; NESCAFE PROTECT + Lactobacillus johnsonii, 4 h", "result": 33, "unit": "%"}, {"measurement": "% relative to untreated control at t = 0", "setting": "[6]; NESCAFE PROTECT + Lactobacillus johnsonii, 16 h", "result": 13, "unit": "%"}, {"measurement": "% relative to untreated control at t = 0", "setting": "[6]; NESCAFE PROTECT + Lactobacillus johnsonii, 24 h", "result": 13, "unit": "%"}, {"measurement": "% relative to untreated control at t = 0", "setting": "[6]; green coffee extract + Lactobacillus johnsonii, 4 h", "result": 42, "unit": "%"}, {"measurement": "% relative to untreated control at t = 0", "setting": "[6]; green coffee extract + Lactobacillus johnsonii, 16 h", "result": 15, "unit": "%"}, {"measurement": "% relative to untreated control at t = 0", "setting": "[6]; green coffee extract + Lactobacillus johnsonii, 24 h", "result": 12, "unit": "%"}, {"measurement": "% relative to untreated control at t = 0", "setting": "[7]; NESCAFE PROTECT + Bifidobacterium lactis, 4 h", "result": 97, "unit": "%"}, {"measurement": "% relative to untreated control at t = 0", "setting": "[7]; NESCAFE PROTECT + Bifidobacterium lactis, 16 h", "result": 81, "unit": "%"}, {"measurement": "% relative to untreated control at t = 0", "setting": "[7]; NESCAFE PROTECT + Bifidobacterium lactis, 24 h", "result": 80, "unit": "%"}, {"measurement": "% relative to untreated control at t = 0", "setting": "[7]; green coffee extract + Bifidobacterium lactis, 4 h", "result": 96, "unit": "%"}, {"measurement": "% relative to untreated control at t = 0", "setting": "[7]; green coffee extract + Bifidobacterium lactis, 16 h", "result": 79, "unit": "%"}, {"measurement": "% relative to untreated control at t = 0", "setting": "[7]; green coffee extract + Bifidobacterium lactis, 24 h", "result": 74, "unit": "%"}, {"measurement": "% relative to untreated control at t = 0", "setting": "Chlorogenate esterase; NESCAFE PROTECT + Chlorogenate esterase, 4 h", "result": 5, "unit": "%"}, {"measurement": "% relative to untreated control at t = 0", "setting": "Chlorogenate esterase; NESCAFE PROTECT + Chlorogenate esterase, 16 h", "result": 3, "unit": "%"}, {"measurement": "% relative to untreated control at t = 0", "setting": "Chlorogenate esterase; NESCAFE PROTECT + Chlorogenate esterase, 24 h", "result": 3, "unit": "%"}, {"measurement": "% relative to untreated control at t = 0", "setting": "Chlorogenate esterase; green coffee extract + Chlorogenate esterase, 4 h", "result": 3, "unit": "%"}, {"measurement": "% relative to untreated control at t = 0", "setting": "Chlorogenate esterase; green coffee extract + Chlorogenate esterase, 16 h", "result": 2, "unit": "%"}, {"measurement": "% relative to untreated control at t = 0", "setting": "Chlorogenate esterase; green coffee extract + Chlorogenate esterase, 24 h", "result": 2, "unit": "%"}]}]}
